The source of these data is PubChem BioAssay (NCI).

Among the test systems are SK-MEL-28 melanoma; IGROV1 ovarian; A498 renal; RPMI-8226 leukemia; SF-268 CNS; SK-MEL-5 melanoma; SNB-75 CNS; HCC-2998 colon; RXF 393 renal; K-562 leukemia.
Holding throughout (assay): DTP human tumour cell line panel, 48 h

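1) Cells in 96-well plates. 2) Compound, 48 h, 5 concentrations. 3) Linear interpolation between surrounding doses. 4) Unreached endpoint = highest concentration. At the GI50, growth is halved. TGI: total growth inhibition.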 Where a SMILES comes first, the peptide text is derived from it. [ ]: non-standard residue; d: D form. The star is where a group is joined. ξ: configuration not given here. X6 = FC(F)(F)c1cc(NC(=S)*)cc(C(F)(F)F)c1; ξF = NC(Cc1ccccc1)C(=O)O

Broadly, the TGI is the concentration at which net growth stops. A lower TGI goes with greater sensitivity of the cells. Take `COC(=O)CC1CCN(C#N)CC1CC[N+](=O)[O-]` (configuration not stated): the TGI in the test with SK-MEL-28 melanoma, in the test on IGROV1 ovarian, in the test with A498 renal, in the test on RPMI-8226 leukemia, in the test with SF-268 CNS and with SK-MEL-5 melanoma was above 100 µM in each case. Besides, the TGI in the test on SNB-75 CNS, in the test with HCC-2998 colon, with RXF 393 renal and with K-562 leukemia was above 100 µM each time.
For orientation: GI50 means the concentration that inhibits growth by half. For `COC(=O)[C@@H](NC(=O)CNC(=O)[C@H]1CCCN1C(=O)C(Cc1ccccc1)NC(=S)Nc1cc(C(F)(F)F)cc(C(F)(F)F)c1)C(C)C` (some centres not stated) (X6-[ξF][dP]GV-OMe), the GI50 in the test on SK-MEL-28 melanoma is 1.84 µM; with IGROV1 ovarian, 3.31 µM; with A498 renal, 2.11 µM; with SF-268 CNS it was 2.98 µM; in the test with SK-MEL-5 melanoma, 1.45 µM; in the test on SNB-75 CNS it was 1.52 µM. Moreover, the GI50 was 3.39 µM in the test with HCC-2998 colon, 1.95 µM with RXF 393 renal and 3.27 µM in the test on K-562 leukemia. Further, the TGI with SK-MEL-28 melanoma was determined as 3.38 µM; in the test on IGROV1 ovarian it was 10.3 µM; in the test with A498 renal it was 7.92 µM; in the test with SF-268 CNS it was 10.7 µM; with SK-MEL-5 melanoma, 2.79 µM; with SNB-75 CNS, 3.49 µM. In addition, the TGI with HCC-2998 colon amounted to 11.9 µM; with RXF 393 renal, 3.5 µM; in the test on K-562 leukemia, 30.1 µM.
On to `O=C(/C=C/c1ccccc1)NC1C=Nc2ccc(Cl)cc2NC1=O` (configuration not stated), for which the TGI was above 100 µM with SK-MEL-28 melanoma; above 100 µM with IGROV1 ovarian; above 100 µM with A498 renal; above 100 µM in the test with SF-268 CNS; 51.6 µM in the test on SK-MEL-5 melanoma; 62.9 µM with SNB-75 CNS. Further, the TGI was determined as 65.5 µM in the test on HCC-2998 colon, 52.4 µM with RXF 393 renal and 59 µM with K-562 leukemia.
With `CCCCCN(CCCCC)CCCNc1c2c(nc3ccc(Cl)cc13)CCCC2`, the GI50 with SK-MEL-28 melanoma was 3.74 µM; with IGROV1 ovarian, 1.49 µM; with A498 renal, 1.72 µM; with RPMI-8226 leukemia it was 1.98 µM; with SF-268 CNS, 3.67 µM; in the test with SK-MEL-5 melanoma it was 1.82 µM. Moreover, the results for the GI50 with SNB-75 CNS, in the test on HCC-2998 colon and with RXF 393 renal were 2.38 µM, 2.48 µM and 2.82 µM, respectively. Further, the total growth inhibition concentration (TGI) was 13.8 µM with SK-MEL-28 melanoma; 5.77 µM in the test with IGROV1 ovarian; 8.94 µM in the test on A498 renal; 4.54 µM in the test with RPMI-8226 leukemia; 14.5 µM in the test with SF-268 CNS; 3.34 µM in the test with SK-MEL-5 melanoma. The TGI in the test with SNB-75 CNS is 11.9 µM; in the test on HCC-2998 colon, 8.89 µM; in the test with RXF 393 renal, 7.95 µM.
Turning to `Cc1ccc(C(=O)/C(=C/c2ccc([N+](=O)[O-])cc2)SCc2ccc(Cl)cc2)cc1`, the GI50 with SK-MEL-28 melanoma is 3.36 µM; with IGROV1 ovarian it was 2.23 µM; with A498 renal, 24 µM; in the test on RPMI-8226 leukemia, 0.24 µM; in the test with SF-268 CNS it was 2.44 µM; with SK-MEL-5 melanoma it was 2.34 µM. Further, the figures for the GI50 with SNB-75 CNS, in the test with HCC-2998 colon and in the test on RXF 393 renal were 20.4 µM, 1.67 µM and 2.38 µM, respectively. Moreover, the TGI is 14.7 µM with SK-MEL-28 melanoma; 8.6 µM with IGROV1 ovarian; above 100 µM in the test with A498 renal; 0.696 µM in the test on RPMI-8226 leukemia; 15.8 µM in the test on SF-268 CNS; 6.43 µM in the test with SK-MEL-5 melanoma. For the same compound, the values for the TGI in the test on SNB-75 CNS, with HCC-2998 colon and with RXF 393 renal were above 100 µM, 3.37 µM and 7.03 µM, respectively.
Turning to `CCOC(=O)CN1C(=O)c2cccc3cc([N+](=O)[O-])cc(c23)C1=O`, the TGI in the test on SK-MEL-28 melanoma worked out at 7.39 µM; in the test with IGROV1 ovarian, 14.8 µM; in the test with A498 renal it was 30.6 µM; with SF-268 CNS it was 11.1 µM; in the test on SK-MEL-5 melanoma, 25.5 µM; with SNB-75 CNS, 22.2 µM. In addition, the TGI in the test with HCC-2998 colon stood at 14.8 µM; in the test with RXF 393 renal it was 3.89 µM; with K-562 leukemia it was 2.03 µM.
`Cc1coc2c1CC1(C)C(CCC(O)C1C)C2` (configuration not stated): the TGI in the test on IGROV1 ovarian, in the test with A498 renal, in the test on RPMI-8226 leukemia, in the test with SF-268 CNS, in the test on SK-MEL-5 melanoma and in the test with SNB-75 CNS was above 100 µM in each case. In addition, the TGI in the test with HCC-2998 colon, in the test on RXF 393 renal and in the test on K-562 leukemia was above 100 µM throughout.
As to `Cc1cc(C)nc(NS(=O)(=O)c2ccc(NC(=O)c3ccc(Cl)c4c(Nc5ccc(S(=O)(=O)Nc6nc(C)cc(C)n6)cc5)c5ccccc5nc34)cc2)n1`, the TGI in the test with SK-MEL-28 melanoma was above 100 µM; in the test with IGROV1 ovarian, above 100 µM; in the test on A498 renal, 57.4 µM; with RPMI-8226 leukemia, above 100 µM; in the test with SF-268 CNS it was above 100 µM; in the test with SK-MEL-5 melanoma, 73.1 µM. In addition, the TGI was above 100 µM in the test with SNB-75 CNS, 4.83 µM with RXF 393 renal and 99 µM with K-562 leukemia.
For the compound `N#CC1C(C#N)C2(c3ccccc3)C(c3ccccc3)=NN(c3ccccc3)CC12` (configuration not stated), the TGI with SK-MEL-28 melanoma, in the test with IGROV1 ovarian, with A498 renal, in the test on RPMI-8226 leukemia, with SK-MEL-5 melanoma and with SNB-75 CNS was above 100 µM each time. The TGI with HCC-2998 colon, in the test on RXF 393 renal and with K-562 leukemia was above 100 µM throughout.
Consider `O=C1/C(=C/c2ccccc2)CN(C(=O)C(Cl)(Cl)Cl)C/C1=C\c1ccccc1`, for which the total growth inhibition concentration (TGI) came to 3.33 µM with SK-MEL-28 melanoma; 5.32 µM in the test on IGROV1 ovarian; 13.7 µM in the test on A498 renal; 0.314 µM in the test with RPMI-8226 leukemia; 13.4 µM with SF-268 CNS; 2.36 µM in the test with SK-MEL-5 melanoma. In addition, the concentration for total growth inhibition (TGI) was 12.3 µM in the test with SNB-75 CNS, 4.02 µM in the test on RXF 393 renal and 3.26 µM in the test with K-562 leukemia.
Take `O=C(O)CCc1coc2ccc(O)cc12`: the TGI in the test on SK-MEL-28 melanoma, in the test with IGROV1 ovarian, with A498 renal, in the test with RPMI-8226 leukemia, in the test on SK-MEL-5 melanoma and in the test on SNB-75 CNS was above 100 µM in each case. The TGI with HCC-2998 colon, with RXF 393 renal and with K-562 leukemia was above 100 µM each time.
